According to ChEMBL document CHEMBL5620353, “Novel antifungal triazoles with alkynyl-methoxyl side chains: Design, synthesis, and biological activity evaluation” (Eur J Med Chem, 2023):
Values after ≈ are worked out from the molar mass of the structure shown.

Key:
Assay type in all cases: functional
[1] = tested on: Pichia kudriavzevii; assay: Antifungal activity against Candida krusei 4996 assessed as inhibition of fungal growth incubated for 48 hrs by microbroth dilution method
[2] = tested on: [Candida] auris; assay: Antifungal activity against fluconazole-resistant Candida auris 918 assessed as inhibition of fungal growth incubated for 48 hrs by microbroth dilution method; details: Candidozyma auris
[3] = tested on: Candida parapsilosis; assay: Antifungal activity against Candida parapsilosis 22019 assessed as inhibition of fungal growth incubated for 48 hrs by microbroth dilution method; details: Lodderomyces parapsilosis
[4] = tested on: [Candida] auris; assay: Antifungal activity against fluconazole-resistant Candida auris 919 assessed as inhibition of fungal growth incubated for 48 hrs by microbroth dilution method; details: Candidozyma auris
[5] = tested on: Candida albicans; assay: Antifungal activity against fluconazole-resistant Candida albicans 904 assessed as inhibition of fungal growth incubated for 48 hrs by microbroth dilution method
[6] = tested on: Nakaseomyces glabratus; assay: Potency index, ratio of fluconazole MIC to test compound MIC for antifungal activity against Candida glabrata 537 assessed as inhibition of fungal growth incubated for 48 hrs by microbroth dilution method
[7] = tested on: Candida albicans; assay: Antifungal activity against Candida albicans SC5314 assessed as inhibition of fungal growth incubated for 48 hrs by microbroth dilution method
[8] = tested on: Cryptococcus neoformans; assay: Antifungal activity against Cryptococcus neoformans 32,609 assessed as inhibition of fungal growth incubated for 72 hrs by microbroth dilution method
[9] = tested on: Candida albicans; assay: Antifungal activity against fluconazole-resistant Candida albicans 901 assessed as inhibition of fungal growth incubated for 48 hrs by microbroth dilution method
[10] = tested on: Candida tropicalis; assay: Antifungal activity against Candida tropicalis 8915 assessed as inhibition of fungal growth incubated for 48 hrs by microbroth dilution method
[11] = tested on: Aspergillus fumigatus; assay: Antifungal activity against Aspergillus fumigatus 7544 assessed as inhibition of fungal growth incubated for 72 hrs by microbroth dilution method
[12] = tested on: [Candida] auris; assay: Antifungal activity against fluconazole-resistant Candida auris 891 assessed as inhibition of fungal growth incubated for 48 hrs by microbroth dilution method; details: Candidozyma auris
[13] = tested on: Nakaseomyces glabratus; assay: Antifungal activity against Candida glabrata 537 assessed as inhibition of fungal growth incubated for 48 hrs by microbroth dilution method
[14] = tested on: Candida albicans; assay: Antifungal activity against Candida albicans 10231 assessed as inhibition of fungal growth incubated for 48 hrs by microbroth dilution method

Structure (SMILES)	MIC [1]	MIC [3]	MIC [7]	MIC [8]	MIC [10]	MIC [11]	MIC [13]	MIC [14]	MIC [2]	MIC [4]	MIC [5]	Ratio [6]	MIC [9]	MIC [12]
C[C@@H](OCC#Cc1ccc(F)cc1)[C@](O)(Cn1cncn1)c1ccc(F)cc1F	8 µg/mL (≈ 19.9 µM)	1 µg/mL (≈ 2.49 µM)	≤ 0.125 µg/mL	0.5 µg/mL (≈ 1.25 µM)	64 µg/mL (≈ 159 µM)	1 µg/mL (≈ 2.49 µM)	≤ 0.125 µg/mL	8 µg/mL (≈ 19.9 µM)	16 µg/mL (≈ 39.9 µM)	16 µg/mL (≈ 39.9 µM)	32 µg/mL (≈ 79.7 µM)	>=8	64 µg/mL (≈ 159 µM)	16 µg/mL (≈ 39.9 µM)
C[C@@H](OCC#Cc1c(Cl)cc(Cl)cc1Cl)[C@](O)(Cn1cncn1)c1ccc(F)cc1F	16 µg/mL (≈ 32.9 µM)	2 µg/mL (≈ 4.11 µM)	1 µg/mL (≈ 2.05 µM)	0.5 µg/mL (≈ 1.03 µM)	64 µg/mL (≈ 131 µM)	2 µg/mL (≈ 4.11 µM)	≤ 0.125 µg/mL	> 64 µg/mL				>=8		
C[C@@H](OCC#Cc1c(F)cc(F)cc1F)[C@](O)(Cn1cncn1)c1ccc(F)cc1F	8 µg/mL (≈ 18.3 µM)	2 µg/mL (≈ 4.57 µM)	≤ 0.125 µg/mL	0.5 µg/mL (≈ 1.14 µM)	64 µg/mL (≈ 146 µM)	4 µg/mL (≈ 9.15 µM)	≤ 0.125 µg/mL	> 64 µg/mL				>=8		
C[C@@H](OCC#Cc1ccc(OC(F)(F)F)cc1)[C@](O)(Cn1cncn1)c1ccc(F)cc1F	64 µg/mL (≈ 137 µM)	16 µg/mL (≈ 34.2 µM)	4 µg/mL (≈ 8.56 µM)	4 µg/mL (≈ 8.56 µM)	32 µg/mL (≈ 68.5 µM)	8 µg/mL (≈ 17.1 µM)	2 µg/mL (≈ 4.28 µM)	32 µg/mL (≈ 68.5 µM)						
C[C@@H](OCC#Cc1ccccc1Cl)[C@](O)(Cn1cncn1)c1ccc(F)cc1F	8 µg/mL (≈ 19.1 µM)	1 µg/mL (≈ 2.39 µM)	0.25 µg/mL (≈ 0.598 µM)	2 µg/mL (≈ 4.79 µM)	64 µg/mL (≈ 153 µM)	4 µg/mL (≈ 9.57 µM)	0.25 µg/mL (≈ 0.598 µM)	16 µg/mL (≈ 38.3 µM)						
C[C@@H](OCC#Cc1cccc(F)c1F)[C@](O)(Cn1cncn1)c1ccc(F)cc1F	8 µg/mL (≈ 19.1 µM)	1 µg/mL (≈ 2.38 µM)	≤ 0.125 µg/mL	1 µg/mL (≈ 2.38 µM)	32 µg/mL (≈ 76.3 µM)	8 µg/mL (≈ 19.1 µM)	≤ 0.125 µg/mL	16 µg/mL (≈ 38.2 µM)				>=8		
C[C@@H](OCC#Cc1ccc(Cl)cc1Cl)[C@](O)(Cn1cncn1)c1ccc(F)cc1F	32 µg/mL (≈ 70.8 µM)	4 µg/mL (≈ 8.84 µM)	≤ 0.125 µg/mL	2 µg/mL (≈ 4.42 µM)	32 µg/mL (≈ 70.8 µM)	4 µg/mL (≈ 8.84 µM)	0.25 µg/mL (≈ 0.553 µM)	32 µg/mL (≈ 70.8 µM)	16 µg/mL (≈ 35.4 µM)	8 µg/mL (≈ 17.7 µM)	32 µg/mL (≈ 70.8 µM)		64 µg/mL (≈ 142 µM)	32 µg/mL (≈ 70.8 µM)
C[C@@H](OCC#Cc1ccccc1F)[C@](O)(Cn1cncn1)c1ccc(F)cc1F	8 µg/mL (≈ 19.9 µM)	2 µg/mL (≈ 4.98 µM)	≤ 0.125 µg/mL	0.5 µg/mL (≈ 1.25 µM)	64 µg/mL (≈ 159 µM)	4 µg/mL (≈ 9.97 µM)	≤ 0.125 µg/mL	8 µg/mL (≈ 19.9 µM)				>=8		

The next lines start with results.

MIC [1]	MIC [3]	MIC [7]	MIC [8]	MIC [10]	MIC [11]	MIC [13]	MIC [14]	Structure (SMILES)	MIC [2]	MIC [4]	MIC [5]	Ratio [6]	MIC [9]	MIC [12]
32 µg/mL (≈ 80.5 µM)	0.5 µg/mL (≈ 1.26 µM)	0.5 µg/mL (≈ 1.26 µM)	4 µg/mL (≈ 10.1 µM)	64 µg/mL (≈ 161 µM)	1 µg/mL (≈ 2.52 µM)	0.25 µg/mL (≈ 0.629 µM)	8 µg/mL (≈ 20.1 µM)	Cc1cccc(C#CCO[C@H](C)[C@](O)(Cn2cncn2)c2ccc(F)cc2F)c1						
4 µg/mL (≈ 10.4 µM)	≤ 0.125 µg/mL	≤ 0.125 µg/mL	≤ 0.125 µg/mL	64 µg/mL (≈ 166 µM)	4 µg/mL (≈ 10.4 µM)	≤ 0.125 µg/mL	32 µg/mL (≈ 83.2 µM)	C[C@@H](OCC#Cc1cccnc1)[C@](O)(Cn1cncn1)c1ccc(F)cc1F				>=8		
16 µg/mL (≈ 39.9 µM)	1 µg/mL (≈ 2.49 µM)	≤ 0.125 µg/mL	1 µg/mL (≈ 2.49 µM)	32 µg/mL (≈ 79.7 µM)	1 µg/mL (≈ 2.49 µM)	≤ 0.125 µg/mL	16 µg/mL (≈ 39.9 µM)	C[C@@H](OCC#Cc1cccc(F)c1)[C@](O)(Cn1cncn1)c1ccc(F)cc1F				>=8		
32 µg/mL (≈ 80.5 µM)	4 µg/mL (≈ 10.1 µM)	≤ 0.125 µg/mL	2 µg/mL (≈ 5.03 µM)	16 µg/mL (≈ 40.3 µM)	4 µg/mL (≈ 10.1 µM)	≤ 0.125 µg/mL	16 µg/mL (≈ 40.3 µM)	Cc1ccc(C#CCO[C@H](C)[C@](O)(Cn2cncn2)c2ccc(F)cc2F)cc1				>=8		
